Structures are written as SMILES.

What all share (type): cell-based
Experiment [1] deals with LU99 cell line. The experiment is described as follows: In vitro cell proliferation experiment (5 days), LU99. To be noted: LU99, 5 days; read-out: Inhibitory Activity IC50. The method, then:
(§1) RPMI 1640 medium, DMEM, Ham's F12 medium, F12K medium, IMDM and penicillin/streptomycin antibiotics were purchased from Gibco, fetal bovine serum was purchased from Hyclone, Envision multilabel plate reader (PerkinElmer). […]
(§2) The test compound was diluted by 5-fold to 8 concentrations with a pipette, i.e., from 2 mM to 25.6 nM, and replicate wells were set up for the experiment. […] Another cell plate was prepared, and the signal value was read as the maximum value (the maximum value in the following equation) on the day of dosing for data analysis.
(§3) 50 μL of cell viability chemiluminescent detection reagent was added to the cell plate and incubated at room temperature for 30 minutes to stabilize the luminescence signal. A multilabel plate reader was used for reading. […]

The test system of experiment [2] is A427 cell line. Kind of experiment: In vitro cell proliferation experiment (5 days), A427. To be noted: A427, 5 days; read-out: Inhibitory Activity IC50. The method, then: as §1, §2, §3
The test system of experiment [3] is p-ERK level in AsPC-1 cells. The experiment is described as follows: Detection of p-ERK level in AsPC-1 cells (HTRF). To be noted: 3 hours incubation; read-out: AsPC-1 pERK IC50. The method, then: AsPC-1 cells were purchased from ATCC: RPMI-1640 medium was purchased from Gibco; fetal bovine serum was purchased from Hyclone; Advanced Phospho-ERK1/2(THR202/TYR204) KIT was purchased from Bioauxilium-Advanced Phospho; ERK1/2(THR202/TYR204) KIT components were: Advanced PhosphoERK1/2 Eu Cryptate antibody, Advanced PhosphoERK1/2 d2 antibody, Blocking reagent (stock solution 100×), Lysis buffer #1 (stock solution 4×). Detection buffer (ready-to-use), with a storage temperature of ≤−16° C. for all.
(1) The cells were seeded in a white-bottomed 384-well cell culture plate, 8 μL of cell suspension per well, each well containing 7,500 cells. The cell plate was placed in a carbon dioxide incubator and incubated overnight at 37° C.;
(2) The test compound was diluted with 100% DMSO to 3 mM as the first concentration, and then diluted with a pipette to 10 concentrations of 3,000, 1,000, 300, 100, 30, 10, 3, 1, 0.3 and 0.1 μM. 2 μL of the compound was taken and added to 198 μL of cell starvation medium, mixed well, 15 μl, of compound solution was taken and added to 35 μL of cell starvation medium and mixed well. […]
(5) After incubation, a multilabel plate reader was used to read the HTRF excitation: 320 nm, emission: 615 nm, and 665 nm. […]

In the case of `CCn1c(-c2cc(N3CCN(C)CC3)cnc2C(C)OC)c2c3cc(ccc31)-c1csc(n1)CC(NC(=O)C1C(C)C1C)C(=O)N1NC(C(=O)OCC(C)(C)C2)C2CC1C2` (single isomer, unassigned) [Compound 6A], the IC50 in experiment [1] worked out at 8.7 nM; in experiment [2], 13.3 nM; in experiment [3], 0.3 nM.

The record behind these values is US12458647B2, “Macrocyclic derivative and use thereof” (Guangzhou Joyo Pharmatech Co., Ltd., priority 2022, dated 2025).
